Measurements: ChEMBL document CHEMBL5329153, “Is structural hybridization invoking new dimensions for antimalarial drug discovery research?” (RSC Med Chem, 2023)

Experiments:
[1] = system: Plasmodium falciparum; test: Antimalarial activity against Plasmodium falciparum 3D7 assessed as parasitic growth inhibition measured after 42 hrs by [3H]hypoxanthine incorporation assay; format: functional, organism-based
[2] = system: Plasmodium falciparum; test: Antimalarial activity against Chloroquine sensitive Plasmodium falciparum RKL-2 assessed as parasitic growth inhibition measured after 36 to 40 hrs by Giemsa staining based assay; format: functional, organism-based
[3] = system: Plasmodium falciparum; test: Antimalarial activity against Chloroquine sensitive Plasmodium falciparum RKL-9 assessed as parasitic growth inhibition measured after 36 to 40 hrs by Giemsa staining based assay; format: functional, organism-based
[4] = system: Plasmodium falciparum; test: Antimalarial activity against chloroquine resistant Plasmodium falciparum FcB1 assessed as parasitic growth inhibition measured after 48 hrs; format: functional, organism-based; settings: FcB1, 48 h
[5] = system: Plasmodium falciparum; test: Antimalarial activity against mefloquine resistant Plasmodium falciparum FcB1 assessed as parasitic growth inhibition measured after 48 hrs; format: functional, organism-based; settings: FcB1, 48 h
[6] = system: Plasmodium falciparum; test: Antimalarial activity against mefloquine resistant Plasmodium falciparum F32 assessed as parasitic growth inhibition measured after 48 hrs; format: functional, organism-based; settings: F32, 48 h
[7] = system: Plasmodium falciparum; test: Antimalarial activity against mefloquine resistant Plasmodium falciparum K1 assessed as parasitic growth inhibition measured after 48 hrs; format: functional, organism-based; settings: K1, 48 h
[8] = system: Plasmodium falciparum; test: Antimalarial activity against chloroquine resistant Plasmodium falciparum F32 assessed as parasitic growth inhibition measured after 48 hrs; format: functional, organism-based; settings: F32, 48 h
[9] = system: Plasmodium falciparum; test: Antimalarial activity against chloroquine resistant Plasmodium falciparum K1 assessed as parasitic growth inhibition measured after 48 hrs; format: functional, organism-based; settings: K1, 48 h
[10] = system: Plasmodium falciparum; test: Antimalarial activity against chloroquine resistant Plasmodium falciparum Thai assessed as parasitic growth inhibition measured after 48 hrs; format: functional, organism-based
[11] = system: Plasmodium falciparum; test: Antimalarial activity against mefloquine resistant Plasmodium falciparum Thai assessed as parasitic growth inhibition measured after 48 hrs; format: functional, organism-based
[12] = system: Plasmodium falciparum; test: Antimalarial activity against Chloroquine sensitive Plasmodium falciparum 3D7 assessed as parasitic growth inhibition measured after 24 hrs; format: functional, organism-based; settings: 3D7, 24 h
[13] = system: Plasmodium falciparum; test: Potency index, ratio of chloroquine IC50 to test compound IC50 for antimalarial activity against Chloroquine sensitive Plasmodium falciparum D6 assessed as parasitic growth inhibition; format: functional
[14] = system: Plasmodium falciparum; test: Antimalarial activity against Chloroquine resistant Plasmodium falciparum W2 assessed as parasitic growth inhibition; format: functional, organism-based
[15] = system: Plasmodium falciparum; test: Potency index, ratio of chloroquine IC50 to test compound IC50 for antimalarial activity against Chloroquine resistant Plasmodium falciparum W2 assessed as parasitic growth inhibition; format: functional
[16] = system: Plasmodium falciparum; test: Antimalarial activity against Chloroquine sensitive Plasmodium falciparum D6 assessed as parasitic growth inhibition; format: functional, organism-based
[17] = system: Plasmodium falciparum; test: Potency index, ratio of mefloquine IC50 to test compound IC50 for antimalarial activity against Plasmodium falciparum female gametocytes assessed as parasitic growth inhibition; format: functional
[18] = system: Plasmodium falciparum; test: Antimalarial activity against Plasmodium falciparum male gametocytes assessed as parasitic growth inhibition; format: functional, organism-based
[19] = system: Plasmodium falciparum; test: Antimalarial activity against Plasmodium falciparum male gametocytes assessed as parasitic growth inhibition by exflagellation assay; format: functional, organism-based
[20] = system: Plasmodium falciparum; test: Potency index, ratio of artesunate IC50 to test compound IC50 for antimalarial activity against Plasmodium falciparum female gametocytes assessed as parasitic growth inhibition; format: functional
[21] = system: Plasmodium falciparum; test: Antimalarial activity against Plasmodium falciparum female gametocytes assessed as parasitic growth inhibition; format: functional, organism-based
[22] = system: Plasmodium falciparum; test: Antimalarial activity against Plasmodium falciparum 3D7 assessed as parasitic growth inhibition; format: functional, organism-based
[23] = system: Hemozoin; test: Inhibition of beta-hematin formation
[24] = system: Plasmodium falciparum; test: Antimalarial activity against Plasmodium falciparum K1 assessed as parasitic growth inhibition; format: functional, organism-based
[25] = system: Plasmodium falciparum; test: Antimalarial activity against Plasmodium falciparum Dd2 assessed as parasitic growth inhibition; format: functional, organism-based
[26] = system: Plasmodium falciparum; test: Antimalarial activity against Plasmodium falciparum 3D7 assessed as parasitic growth inhibition measured after 72 hrs by SYBR Green dye based assay; format: functional, organism-based; settings: 3D7, 72 h

With COc1ccc2cc3[n+](cc2c1OCc1cn(-c2ccc(S(=O)(=O)Nc4ccc(F)cc4)cc2)nn1)CCc1cc2c(cc1-3)OCO2.[Cl-] the IC50 [1] was 0.15 µg/mL.

COc1ccc2cc3[n+](cc2c1OCc1cn(-c2ccc(S(=O)(=O)Nc4ccc(Cl)cc4)cc2)nn1)CCc1cc2c(cc1-3)OCO2.[Cl-] was tested, and the IC50 [1] was 0.1 µg/mL.

Work on O=C1C(O)=C(NCCNc2ccnc3cc(Cl)ccc23)C(=O)c2ccccc21 yielded an IC50 [2] of 391 nM and an IC50 [3] of 684 nM.

O=C1C(O)=C(N2CCN(c3ccnc4cc(Cl)ccc34)CC2)C(=O)c2ccccc21 gave an IC50 [2] of 391 nM and an IC50 [3] of 1090 nM.

Work on C[C@H]1C[C@@H]2C[C@@H]3CC[C@H]4OC(C(F)(F)F)=C(COCCOC(=O)CCC(=O)OC(c5cc(C(F)(F)F)nc6c(C(F)(F)F)cccc56)C5CCCCN5)[C@H](C1)[C@]24OO3 (stereo partly specified) yielded an IC50 [4] of 2.4 nM, an IC50 [5] of 2.4 nM and an IC50 [6] of 2.4 nM. It also gave an IC50 [7] of 2.4 nM, an IC50 [8] of 2.4 nM and an IC50 [9] of 2.4 nM. It also gave an IC50 [10] of 2.4 nM and an IC50 [11] of 2.4 nM.

With Cc1ccc(-c2nn(-c3nc4ccccc4s3)cc2/C=N\c2ccc(Cl)cc2)cc1 the EC50 [12] was 1980 nM.

For Cc1cc(NCCCCNc2ccnc3cc(Cl)ccc23)nc(Nc2ccc(C(=O)N3CCOCC3)cc2)n1, the “Ratio IC50” value [13] was 11, the IC50 [14] was 33 nM and the “Ratio IC50” value [15] was 11. The IC50 [16] was 32 nM.

CC1=C(CN2CCCCC2C(O)c2cc(C(F)(F)F)nc3c(C(F)(F)F)cccc23)[C@@H]2C[C@@H](C)C[C@@H]3C[C@]4(C)CC[C@@H](O1)[C@@]32OO4 (stereo partly specified) was tested, and the IC50 [4] was 2.4 nM, the IC50 [5] was 2.4 nM and the IC50 [6] was 2.4 nM. It also gave an IC50 [7] of 2.4 nM, an IC50 [8] of 2.4 nM and an IC50 [9] of 2.4 nM. For the same compound, the IC50 [10] was 2.4 nM and the IC50 [11] was 2.4 nM.

Cc1ccc(-c2nn(-c3nc4ccccc4s3)cc2/C=N\c2cccc(Cl)c2)cc1 was tested, and the EC50 [12] was 1950 nM.

For C[C@H]1[C@@H](OC(=O)CCC(=O)O)O[C@@H]2C[C@@]3(C)CC[C@H]4[C@H](C)CC[C@@H]1[C@@]24OO3.Cc1cccc2c(C(O)C3CCCCN3)cc(C(F)(F)F)nc12 (racemic), the “Ratio IC50” value [17] was 280, the IC50 [18] was 4600 nM and the IC50 [19] was 17 nM. The “Ratio IC50” value [20] was 15 and the IC50 [21] was 20 nM.

For C[C@@H]1CC[C@H]2[C@@H](C)C(=O)O[C@@H]3O[C@@]4(C)CC[C@@H]1[C@]32OO4 [ARTEMISININ], the IC50 [18] was 12700 nM, the IC50 [19] was 120 nM and the IC50 [21] was 300 nM.

For CCN(CC)CCCC(C)Nc1ccnc2cc(Cl)ccc12 (stereo unspecified) [CHLOROQUINE], the EC50 [22] was 12.7 nM, the IC50 [23] was 180 nM and the EC50 [24] was 303 nM. For the same compound, the EC50 [25] was 165 nM and the EC50 [26] was 9.8 nM.
